Assay results taken from publication PMC12563520, “Asiatic Acid from Centella asiatica as a Potent EGFR Tyrosine Kinase Inhibitor with Anticancer Activity in NSCLC Cells Harboring Wild-Type and T790M-Mutated EGFR” (Biomolecules, 2025).
Where two headings read alike, the source gives them in different places.

How the values were obtained:
H1975 cells [1] = test: MTT cell viability assay, H1975; type: cell-based; settings: Homo sapiens, NCI-H1975
Protocol: (§1) Cells were seeded in a 96-well plate at 1,500 cells/well and incubated at 37 °C for 24 h. After incubation, the culture medium was replaced with fresh medium containing various concentrations of asiatic acid. Cells treated with 0.8% (v/v) DMSO served as the vehicle control. After 72 h, cells were incubated with 100 μL of MTT solution (0.5 mg/mL in PBS) for 4 h at 37 °C. The solution was then removed, 100 μL of DMSO was added, and the plate was protected from light with gentle agitation for 15 min. Absorbance was recorded at 540 nm using a Sunrise microplate reader (Tecan Group Ltd., Männedorf, Switzerland).

H1975 cells [2] = test: Annexin V/PI apoptosis assay by flow cytometry, H1975; type: cell-based, human; settings: 24 h
Protocol: Cells were plated in a 6-well plate at a density of 200,000 cells/well and allowed to adhere overnight at 37 °C. The following day, cells were treated with increasing concentrations of asiatic acid for 24 h. […] After treatment, cells were harvested by trypsinization and centrifugation. […] Propidium iodide (PI; P3566; Invitrogen^TM, Waltham, MA, USA) was then added, and apoptotic populations were analyzed using a BD FACSCalibur flow cytometer (BD Biosciences, Heidelberg, Germany).

L858R/T790M EGFR = target: T1, L858R/T790M EGFR (Homo sapiens, UniProt P00533, L858R/T790M); test: ADP-Glo kinase assay, double-mutant EGFR; type: biochemical; settings: mean ± SEM (n = 3), read-out: IC50 kinase inhibition, L858R/T790M EGFR
T1 construct: purchased Sigma-Aldrich SRP0242
Protocol: The EGFR inhibitory activity of the tested compound was measured using the ADP-Glo^TM assay (Promega, WI, USA) according to a previous study [28]. […] For the positive control, 2 μL of DMSO was added in place of the tested compound. For the negative control, the EGFR enzyme was omitted and replaced with 5 μL of 1X kinase buffer. The plate was protected from light and incubated at room temperature for 1 h, followed by the addition of 5 μL ADP-Glo^TM reagent and a further 40-min incubation. To convert ADP to ATP, 10 μL of kinase detection reagent was added, followed by a 30-min incubation under the same conditions. ATP levels were then measured using a Varioskan LUX multimode microplate reader (Thermo Fisher Scientific, Waltham, MA, USA), and percent inhibition was calculated using Equation (1).(1) Inhibition activity %=positive − negative−sample −negative/positive−negative ×100
The IC50 of each compound was calculated using GraphPad Prism software (version 8.0.2, GraphPad Software, Inc., Boston, MA, USA).

[3] = target: T2, p-EGFR (Tyr1068) in A549 cells (Homo sapiens, UniProt P00533); test: Western blot of p-EGFR, EGF-stimulated A549; type: cell-based; settings: for p-EGFR expression (fold), Mean: A549, EGF-stimulated (+), vs DMSO (+)
T2 construct: endogenous in cells; host or cells: A549
Protocol: (§2) Cells were plated at 200,000 cells/well in a 6-well plate and allowed to adhere for 24 h. They were then treated with the tested compound at varying concentrations for 24 h. For A549 cells, treatment was performed in serum-free medium for 24 h, followed by stimulation with 100 ng/mL human EGF for 10 min prior to harvesting. Cells were harvested by trypsinization, lysed in RIPA buffer [50 mM Tris-HCl (pH 7.4), 150 mM NaCl, 1% NP-40, 1% Na-deoxycholate, and 0.1% SDS] with protease and phosphatase inhibitors, and incubated on ice for 30 min. Lysates were centrifuged, and protein concentration was determined using the Bradford assay. Equal amounts (30 μg) were separated by 10% SDS-PAGE and transferred to a […] membrane (Immobilon®-P, Merck Millipore, Burlington, MA, USA). The membrane was blocked with 5% skim milk in 1X TBST and incubated overnight at 4 °C with primary antibodies (Table S2) diluted 1:1000 in 1% skim milk-TBST or 1% BSA-TBST. After washing, membranes were incubated at room temperature for 1 h with secondary antibodies—goat anti-Rabbit IgG or goat anti-Mouse IgG (Invitrogen, Waltham, MA, USA)—diluted 1:2000. Protein signals were detected using Luminata^TM Crescendo Western HRP Substrate (Merck Millipore) and imaged with an ImageQuant 800 system (GE Healthcare Bio-Sciences, Uppsala, Sweden). The auto exposure mode was selected to automatically adjust the exposure time to prevent image saturation. The detected signal was quantified using Image Studio Lite (version 5.2, LICORbio^TM, Lincoln, NE, USA).

[4] = target: T3, p-EGFR (Tyr1068) in H1975 cells (Homo sapiens, UniProt P00533, L858R/T790M); test: Western blot of p-EGFR, H1975; type: cell-based; settings: H1975, 6.25–50 μM, dose-dependent
T3 construct: endogenous in cells; host or cells: H1975
Protocol: as §2, with “After washing, membranes were incubated at room temperature for 1 h with secondary antibodies—goat anti-Rabbit IgG or goat anti-Mouse IgG (Invitrogen, Waltham, MA, USA)—diluted 1:2000.” left out, “The auto exposure mode was selected to automatically adjust the exposure time to prevent image saturation.” left out

[5] = tested on: p-Akt (Ser473) in H1975 cells; test: Western blot of p-Akt, H1975; type: cell-based, human; settings: for p-Akt expression (fold), Mean: 24 h, vs DMSO
Protocol: as §2

[6] = tested on: p-Akt (Ser473) in A549 cells; test: Western blot of p-Akt, A549; type: cell-based, human; settings: for p-Akt expression (fold), Mean: 24 h, vs DMSO
Protocol: as §2

[7] = tested on: p-ERK (Thr202/Tyr204) in H1975 cells; test: Western blot of p-ERK, H1975; type: cell-based, human; settings: for p-ERK expression (fold), Mean: 24 h, vs DMSO
Protocol: as §2

[8] = target: fibroblast growth factor receptor (FGFR); test: FGFR kinase inhibition (selectivity); type: biochemical
[9] = tested on: BEAS-2B normal lung epithelial cells; test: MTT cell viability assay, BEAS-2B; type: cell-based, human
Protocol: as §1

[10] = target: T4, EGFR protein in A549 cells (Homo sapiens, UniProt P00533); test: Cellular thermal shift assay (CETSA); type: binding; settings: A549 cell lysates, 100 μM, 1 hour, heated at 40–60 °C, n = 2
T4 construct: endogenous in cells; host or cells: A549
Protocol: Figure S9. The cellular thermal shift assay. The stability of EGFR protein in A549 cells was assessed by treating cell lysates with either 0.2% DMSO or 100 μM asiatic acid for 1 hour. Following treatment, samples were heated at 40–60 °C for 3 minutes, rapidly cooled on ice for 10 minutes, and then centrifuged at 12,000 rpm at 4 °C for 30 minutes.
The supernatants were analyzed by Western blot, and relative band intensities were plotted against the corresponding heating temperatures. Data are expressed as mean ± […]
(1 picture or pasted object on this page, not shown here)

[11] = tested on: cleaved PARP (Asp214) in H1975 cells; test: Western blot of cleaved PARP, H1975; type: cell-based, human; settings: for cleaved PARP expression (fold), Mean: 24 h, vs 0 μM
Protocol: as §2

[12] = tested on: p-ERK (Thr202/Tyr204) in A549 cells; test: Western blot of p-ERK, A549; type: cell-based, human; settings: for p-ERK expression (fold), Mean: 24 h, vs DMSO
Protocol: as §2

A549 cells [13] = test: Annexin V/PI apoptosis assay by flow cytometry, A549; type: cell-based, human; settings: 24 h
Protocol: Cells were plated in a 6-well plate at a density of 200,000 cells/well and allowed to adhere overnight at 37 °C. The following day, cells were treated with increasing concentrations of asiatic acid for 24 h. […] After treatment, cells were harvested by trypsinization and centrifugation. The cell pellets were stained with FITC-conjugated Annexin V (640945; BioLegend, San Diego, CA, USA) and incubated for 30 min at room temperature in the dark. Propidium iodide (PI; P3566; Invitrogen^TM, Waltham, MA, USA) was then added, and apoptotic populations were analyzed using a BD FACSCalibur flow cytometer (BD Biosciences, Heidelberg, Germany).

A549 cells [14] = test: MTT cell viability assay, A549; type: cell-based; settings: Homo sapiens, 72 h, mean ± SEM (n = 3)
Protocol: as §1

[15] = tested on: cleaved PARP (Asp214) in A549 cells; test: Western blot of cleaved PARP, A549; type: cell-based, human; settings: for cleaved PARP expression (fold), Mean: 24 h, vs 0 μM
Protocol: as §2

wild-type EGFR = target: T5, wild-type EGFR (Homo sapiens, UniProt P00533); test: ADP-Glo kinase assay, wild-type EGFR; type: biochemical; settings: mean ± SEM (n = 3), read-out: IC50 kinase inhibition, Wild-Type EGFR
T5 construct: purchased Sigma-Aldrich SRP0239

[16] = A549, 100 μM, listed as AS-PN005

Structure (SMILES): C=CC(=O)Nc1cc(Nc2nccc(-c3cn(C)c4ccccc34)n2)c(OC)cc1N(C)CCN(C)C [Osimertinib]
- viability at 3.125 µM (H1975 cells [1]; H1975, 3.125 μM, n = 3): 61.5%
- viability at 6.25 µM (H1975 cells [1]; H1975, 6.25 μM, n = 3): 44.8%
- viability at 12.5 µM (H1975 cells [1]; H1975, 12.5 μM, n = 3): 23.8%
- viability at 25 µM (H1975 cells [1]; H1975, 25 μM, n = 3): 12.1%
- viability at 50 µM (H1975 cells [1]; H1975, 50 μM, n = 3): 7.89%
- viability at 100 µM (H1975 cells [1]; H1975, 100 μM, n = 3, read-out: Cell viability (%) Mean): 0.43%
- IC50 (H1975 cells [1]; Table S1, n = 3, read-out: IC50 (μM) Mean, H1975 cell viability): 4.14 µM
- increase of apoptosis compared to the untreated group (H1975 cells [2]; H1975, 5 μM): threefold

Structure (SMILES): C[C@H]1[C@H](C)CC[C@]2(C(=O)O)CC[C@]3(C)C(=CC[C@@H]4[C@@]5(C)C[C@@H](O)[C@H](O)[C@@](C)(CO)[C@@H]5CC[C@]43C)[C@H]12 [Asiatic acid, asiatic acid]
- IC50 (L858R/T790M EGFR): 0.000348 ± 5.5e-05 µM
- EGF-induced EGFR phosphorylation, in words ([3]; A549, 12.5–100 μM, concentration-dependent): significantly inhibited
- p-EGFR expression (fold), Mean ([3]; 12.5 μM): 0.75 fold
- p-EGFR expression (fold), Mean ([3]; 25 μM): 0.40 fold
- p-EGFR expression (fold), Mean ([3]; 50 μM): 0.36 fold
- p-EGFR expression (fold), Mean ([3]; 100 μM): 0.21 fold
- IC50 (H1975 cells [1]; H1975, MTT, 72 h, mean ± SEM (n = 3), read-out: IC50 cell viability): 36.6 ± 0.86 µM
- viability at 100 µM (H1975 cells [1]; H1975, concentrations of ≥100 μM, read-out: cell viability): < 40%
- p-EGFR levels, in words [4]: significantly reduced
- p-Akt expression (fold), Mean ([5]; H1975, 6.25 μM): 0.747 fold
- p-Akt expression (fold), Mean ([5]; H1975, 12.5 μM): 0.696 fold
- p-Akt expression (fold), Mean ([5]; H1975, 25 μM): 0.605 fold
- p-Akt expression (fold), Mean ([5]; H1975, 50 μM): 0.423 fold
- p-Akt level, in words ([5]; H1975, 6.25–50 μM, p < 0.0001): significant, dose-dependent decrease
- p-Akt expression (fold), Mean ([6]; A549, 12.5 μM): 0.454 fold
- p-Akt expression (fold), Mean ([6]; A549, 25 μM): 0.393 fold
- p-Akt expression (fold), Mean ([6]; A549, 50 μM): 0.336 fold
- p-Akt expression (fold), Mean ([6]; A549, 100 μM): reducing these proteins more than erlotinib
- p-Akt expression (fold), Mean [6, 16]: 0.147 fold
- p-Akt levels compared to the vehicle control, in words ([6]; A549, 12.5–100 μM): significantly decreased
- p-ERK expression (fold), Mean ([7]; H1975, 6.25 μM): 0.755 fold
- p-ERK expression (fold), Mean ([7]; H1975, 12.5 μM): 0.636 fold
- p-ERK expression (fold), Mean ([7]; H1975, 25 μM): 0.566 fold
- p-ERK expression (fold), Mean ([7]; H1975, 50 μM): 0.458 fold
- p-ERK level, in words ([7]; H1975, 6.25–50 μM, p < 0.0001): significant, dose-dependent decrease
- IC50 ([8]; Figure S8): 0.000471 µM
- selectivity for EGFR over FGFR ([8]; ratio of kinase IC50 values): approximately 13.5 fold
- IC50 ([9]; Homo sapiens, BEAS-2B, 72 h, mean ± SEM (n = 3)): 184 ± 5.38 µM
- cytotoxicity in BEAS-2B cells ([9]; concentrations ≤100 μM (12.5–100 μM)): no notable cytotoxicity
- thermal stability of EGFR protein (CETSA) [10]: markedly enhanced the stability
- cleaved PARP expression (fold), Mean ([11]; H1975, 12.5 μM): 7.26 fold
- cleaved PARP expression (fold), Mean ([11]; H1975, 25 μM): 9.99 fold
- cleaved PARP expression (fold), Mean ([11]; H1975, 50 μM): 14.15 fold
- cleaved PARP expression, in words ([11]; H1975, 12.5–50 μM, p < 0.0001): significantly elevated
- p-ERK expression (fold), Mean ([12]; A549, 12.5 μM): 0.427 fold
- p-ERK expression (fold), Mean ([12]; A549, 25 μM): 0.402 fold
- p-ERK expression (fold), Mean ([12]; A549, 50 μM): 0.294 fold
- p-ERK expression (fold), Mean ([12]; A549, 100 μM): reducing these proteins more than erlotinib
- p-ERK expression (fold), Mean [12, 16]: 0.103 fold
- p-ERK levels compared to the vehicle control, in words ([12]; A549, 12.5–100 μM): significantly decreased
- increase of apoptotic cell population relative to DMSO-treated group (A549 cells [13]; A549, 100 μM): approximately threefold
- increase of apoptotic cell population relative to DMSO-treated group (H1975 cells [2]; H1975, 50 μM): about twofold
- IC50 (A549 cells [14]): 64.5 ± 2.49 µM
- cleaved PARP expression (fold), Mean ([15]; A549, 25 μM): 3.12 fold
- cleaved PARP expression (fold), Mean ([15]; A549, 50 μM): 4.42 fold
- cleaved PARP expression (fold), Mean ([15]; A549, 100 μM): 6.86 fold
- cleaved PARP (Asp214) levels, in words ([15]; A549, 25–100 μM, p < 0.0001): significant, concentration-dependent increase
- IC50 (wild-type EGFR): 0.035 ± 0.002 nM

Structure (SMILES): C#Cc1cccc(Nc2ncnc3cc(OCCOC)c(OCCOC)cc23)c1 [Erlotinib, reference compound]
- increase of apoptosis compared to the untreated group (A549 cells [13]; A549, 10 μM): approximately twofold
